For 12 molecules, Ki, Kd and IC50 results are on record in patent US9133131B2 (Purdue Pharma L.P., priority 2011, dated 2015).

One assay concerns the target hNav1.7 (Homo sapiens (Human), UniProt Q15858). The assay is described as follows: Electrophysiology (EP) whole-cell patch clamp assay. The following applies: hNav1.7 HEK-293 cells; for Ki: affinity for the inactivated state of the channel, read-out: Nav1.7 Activity EP assay Ki; for Kd: resting block dissociation constant, read-out: Nav1.7 Activity EP assay Kr. It counts as cell-based. The protocol: Cells: The hNav1.7 expressing HEK-293 cells were plated on 35 mm culture dishes pre-coated with poly-D-lysine in standard DMEM culture media (Mediatech, Inc., Herndon, Va.) and incubated in a 5% CO2 incubator at 37° C. Cultured cells were used approximately 12-48 hours after plating.
Electrophysiology: On the day of experimentation, the 35 mm dish was placed on the stage of an inverted microscope equipped with a perfusion system that continuously perfuses the culture dish with fresh recording media. A gravity driven superfusion system was used to apply test solutions directly to the cell under evaluation. This system consists of an array of glass pipette glass connected to a motorized horizontal translator. The outlet of the shooter was positioned approximately 100 μm from the cell of interest.
Whole cell currents were recorded using the whole-cell patch clamp configuration using an Axopatch 200B amplifier (Axon Instruments, Foster City Calif.), 1322A A/D converter (Axon Instruments) and pClamp software (v. 8; Axon Instruments) and stored on a personal computer. Gigaseals were formed and the whole-cell configuration was established in voltage clamp mode, and membrane currents generated by hNav1.7 were recorded in gap-free mode. Borosilicate glass pipettes have resistance values between 1.5 and 2.0 MΩ when filled with pipette solution and series resistance (<5 MΩ) was compensated 75-80%. Signals were sampled at 50 kHz and low pass filtered at 3 kHz.
Voltage protocols: After establishing the whole-cell configuration in voltage clamp mode, voltage protocols were run to establish the 1) test potential, 2) holding potential, and 3) the conditioning potential for each cell.
After establishing the whole-cell configuration in voltage clamp mode, a standard I-V protocol was run to determine the potential at which the maximal current (Imax) is elicited. This potential was the test potential (Vt). To determine a conditioning potential at which 100% of channels were in the inactivated state, a standard steady-state inactivation (SSIN) protocol was run using a series of fifteen 100 ms-long depolarizing prepulses, incrementing in 10 mV steps, immediately followed by a 5 ms testing pulse, Vt, to Vmax. This protocol also permitted determination of the holding potential at which all channels are in the resting state.
For compounds causing significant retardation of recovery from inactivation, an estimate of the affinity for the inactivated state of the channel (Ki) was generated using the following protocol. From the negative, no residual inactivation, holding potential, the cell was depolarized to the conditioning voltage for 2-5 seconds, returned to the negative holding potential for 10-20 ms to relieve fast inactivation and then depolarized to the test potential for ˜15 ms. This voltage protocol was repeated every 10-15 seconds, first to establish a baseline in the absence of the test compound, then in the presence of the test compound.
After a stable baseline was established, the test compound was applied and block of the current elicited by the test pulse assessed. In some cases, multiple cumulative concentrations were applied to identify a concentration that blocked between 40-60% of this current. Washout of the compound was attempted by superfusing with control solution once steady-state block was observed. An estimate of the Ki was calculated as follows: Ki=[drug]*{FR/(1−FR)}, Eq. 1
where [drug] is the concentration of a drug, and FR=I(after drug)/I(control), Eq. 2 where I is the peak current amplitude. If multiple concentrations were used, Ki was determined from the fit of a logistic equation to FRs plotted against corresponding drug concentrations.
In the alternative, the voltage clamp protocol to examine hNav1.7 currents was as follows. […]

The target of another assay is human Nav1.7 (Homo sapiens (Human), UniProt Q15858). In words: FLIPR sodium dye assay for sodium channel blocking activity. It counts as cell-based. The note with it: recombinant human Nav1.7 in HEK293 cells. An excerpt:
For dominant selection of the Nav1.7-expressing clones, the expression plasmid co-expressed the neomycin resistance gene. […] Recombinant beta and gamma subunits were not introduced into this cell line. Additional cell lines expressing recombinant Nav1.7 cloned from other species can also be used, alone or in combination with various beta subunits, gamma subunits or chaperones.
Cell maintenance: Unless otherwise noted, cell culture reagents were purchased from Mediatech of Herndon, Va. The recombinant Nav1.7/HEK293 cells were routinely cultured in growth medium consisting of Dulbecco's […] essential medium containing 10% fetal bovine serum (FBS, Hyclone, Thermo Fisher Scientific, Logan, Utah), 100 U/mL penicillin, 100 μg/mL streptomycin, 2-4 mM L-glutamine, and […] G418. For natural, non-recombinant cell lines, the selective antibiotic was omitted, and additional media formulations can be applied as needed.
The intensity of this emission, but not the wavelength range, is increased when the dye is exposed to Na^+ ions, which it can bind with partial selectivity. Cells expressing Nav1.7 or other sodium channels were loaded with the CoroNa™ Green dye immediately in advance of the fluorescence assay, and then, after agonist stimulation, the mobilization of Na^+ ions was detected as the Na^+ ions flowed from the extracellular fluid into the cytoplasm through the activated sodium channel pores. The dye was stored in the dark as a lyophilized powder, and then an aliquot was dissolved immediately before the cell loading procedure, according to the instructions of the manufacturer to a stock concentration of 10 mM in DMSO. It was then diluted in the assay buffer to a 4× concentrated working solution, so that the final concentration of dye in the cell loading buffer was 5 μM.
These scorpion toxins inhibit the fast inactivation of their cognate target channels. Stock solutions of the agonists were prepared to 40 mM in DMSO (veratridine) and 1 mg/mL in dH2O (scorpion venom), and then diluted to make a 4× or 2× stock (depending on the particular assay) in assay buffer, the final concentration being 100 μM (veratridine) and 10 μg/mL (scorpion venom). Both of the agonists were purchased from Sigma Aldrich, St. Louis, Mo.
Test Compounds: Test compounds were dissolved in DMSO to yield 10 mM stock solutions. […] If a particular test article appeared to be especially potent, then the concentration curve was adjusted, e.g., to 10-fold lower concentrations, in order to perform the dose-response in a more relevant concentration range. Compound dilutions were added during the dye-loading and pre-stimulation step, and then again during the fluorescence assay, early in the kinetic read.
Data Analysis: The data were analyzed according to methods known to those skilled in the art or using the GraphPad® Prism version 4.0 or higher, Program (available from GraphPad Software, San Diego, Calif.) to determine the IC50 value for the test article. At least one standard reference compound was evaluated during each experiment.
FLIPR® or FLIPR^TETRA® sodium dye assay with KCl and test article pre-incubation: Cells were prepared by plating the recombinant HEK293 cells or other host cells expressing either recombinant or non-recombinant, native, Nav1.7 alpha subunit, alone or in combination with various beta and gamma subunits at a density of ˜40,000 cells/well into a 96-well black, clear-bottom, PDL-coated plate. The assay can be adapted to 384-well or 1,536-well format, if desired, using proportionately less cells and media. The plate was then incubated in growth media, with or without selective antibiotic, overnight at 37° C. at 5% CO2, 95% humidity, in preparation for the assay. For counter-screens of other voltage-gated sodium channels, the procedure was very similar, though optimal densities of cells, media and subsequent assay components can be fine-tuned for the particular cell line or isoform.

hNav1.7, sequence (Q15858 other isoform, or with tags, fused parts or gaps): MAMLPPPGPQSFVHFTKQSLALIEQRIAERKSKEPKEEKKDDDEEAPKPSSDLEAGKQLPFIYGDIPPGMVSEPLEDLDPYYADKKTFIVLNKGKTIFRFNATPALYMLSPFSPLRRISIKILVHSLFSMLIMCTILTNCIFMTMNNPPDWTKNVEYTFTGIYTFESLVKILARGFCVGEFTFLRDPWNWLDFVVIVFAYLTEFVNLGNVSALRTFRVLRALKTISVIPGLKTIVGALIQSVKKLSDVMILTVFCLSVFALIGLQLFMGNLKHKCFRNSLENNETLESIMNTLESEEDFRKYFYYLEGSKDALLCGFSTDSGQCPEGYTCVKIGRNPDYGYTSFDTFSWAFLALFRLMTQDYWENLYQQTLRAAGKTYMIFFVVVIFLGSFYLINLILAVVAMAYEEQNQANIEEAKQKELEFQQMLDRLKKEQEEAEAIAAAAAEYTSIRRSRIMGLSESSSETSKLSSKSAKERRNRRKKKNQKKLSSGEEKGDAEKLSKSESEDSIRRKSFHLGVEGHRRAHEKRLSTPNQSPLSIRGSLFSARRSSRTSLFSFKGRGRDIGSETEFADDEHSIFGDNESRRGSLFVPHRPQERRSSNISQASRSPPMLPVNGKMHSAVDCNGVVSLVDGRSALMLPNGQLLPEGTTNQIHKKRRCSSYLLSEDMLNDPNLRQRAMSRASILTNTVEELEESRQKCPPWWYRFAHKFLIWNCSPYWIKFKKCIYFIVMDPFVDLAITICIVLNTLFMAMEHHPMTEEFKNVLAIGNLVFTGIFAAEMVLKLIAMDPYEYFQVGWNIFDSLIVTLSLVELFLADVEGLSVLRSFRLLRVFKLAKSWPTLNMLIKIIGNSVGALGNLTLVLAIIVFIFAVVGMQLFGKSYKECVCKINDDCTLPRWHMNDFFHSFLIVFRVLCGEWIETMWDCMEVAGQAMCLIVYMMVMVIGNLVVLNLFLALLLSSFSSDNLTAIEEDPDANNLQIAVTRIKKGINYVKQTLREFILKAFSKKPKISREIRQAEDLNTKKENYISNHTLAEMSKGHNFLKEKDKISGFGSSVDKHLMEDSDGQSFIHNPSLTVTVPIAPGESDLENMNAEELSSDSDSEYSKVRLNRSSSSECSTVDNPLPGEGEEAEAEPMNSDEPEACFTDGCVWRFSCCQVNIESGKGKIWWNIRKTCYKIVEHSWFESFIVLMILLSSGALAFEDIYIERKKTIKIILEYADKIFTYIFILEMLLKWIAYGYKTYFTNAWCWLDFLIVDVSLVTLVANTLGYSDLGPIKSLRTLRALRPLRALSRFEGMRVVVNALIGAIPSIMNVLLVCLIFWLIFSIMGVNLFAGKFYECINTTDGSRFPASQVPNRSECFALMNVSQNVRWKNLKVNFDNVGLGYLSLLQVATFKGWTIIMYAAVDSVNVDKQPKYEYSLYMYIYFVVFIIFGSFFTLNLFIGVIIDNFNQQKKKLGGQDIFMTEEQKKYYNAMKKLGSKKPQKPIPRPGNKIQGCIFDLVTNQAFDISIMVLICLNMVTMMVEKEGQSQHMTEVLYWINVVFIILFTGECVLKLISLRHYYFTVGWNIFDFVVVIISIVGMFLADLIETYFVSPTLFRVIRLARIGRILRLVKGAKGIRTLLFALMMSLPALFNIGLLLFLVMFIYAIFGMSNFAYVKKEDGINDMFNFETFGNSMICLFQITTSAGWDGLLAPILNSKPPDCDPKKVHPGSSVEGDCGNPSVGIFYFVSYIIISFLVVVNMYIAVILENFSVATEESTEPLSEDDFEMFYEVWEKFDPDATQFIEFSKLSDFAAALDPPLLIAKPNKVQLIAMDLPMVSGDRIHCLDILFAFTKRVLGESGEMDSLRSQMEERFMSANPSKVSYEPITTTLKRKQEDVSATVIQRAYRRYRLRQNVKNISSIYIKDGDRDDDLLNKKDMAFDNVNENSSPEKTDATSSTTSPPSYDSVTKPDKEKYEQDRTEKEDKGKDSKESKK
human Nav1.7, sequence (Q15858 other isoform, or with tags, fused parts or gaps): as above

Regarding `NC(=O)c1cc([C@@H](O)CO)nc(-c2ccc(Oc3ccc(Cl)cc3F)cc2)n1` [compound 9], at hNav1.7, the Ki came to 27 ± 0.3 nM and the Kd amounted to 1040 ± 230 nM. Besides, the IC50 at human Nav1.7 is 67 ± 5 nM. For the molecule `C[C@H](NC(=O)c1cc([C@H](O)CO)nc(-c2ccc(Oc3ccc(F)cc3)cc2)n1)C(N)=O` [compound 16], at hNav1.7, the Ki was determined as 643 ± 190 nM and the Kd was determined as 154000 ± 54400 nM. Moreover, on human Nav1.7, the IC50 worked out at 593 ± 4 nM. Take `N#Cc1ccc(Oc2ccc(-c3nc(C(N)=O)cc([C@@H](O)CO)n3)cc2)cc1C(F)(F)F` [compound 12]: on hNav1.7, the Ki is 400 ± 90 nM and the Kd was determined as 8670 ± 990 nM. In addition, at human Nav1.7, the IC50 is 384 ± 29 nM. Turning to `NC(=O)c1cc([C@H](O)CO)nc(-c2ccc(Oc3ccc(C(F)(F)F)cn3)cc2)n1` [compound 19], the concentration for half-maximal inhibition (IC50) on human Nav1.7 was 325 nM. On to `NC(=O)c1cc([C@@H](O)CO)nc(-c2ccc(Oc3ccc(C(F)(F)F)cc3)cc2)n1` [compound 18], for which, on human Nav1.7, the IC50 was 135 ± 28 nM. `N#Cc1ccc(Oc2ccc(-c3nc(C(N)=O)cc([C@H](O)CO)n3)cc2)c(C(F)(F)F)c1` [compound 5]: on human Nav1.7, the IC50 worked out at 526 ± 129 nM.

Turning to `COC(=O)[C@H](C)NC(=O)c1cc([C@H](O)CO)nc(-c2ccc(Oc3ccc(F)cc3)cc2)n1` [compound 14], at human Nav1.7, the IC50 was 1920 ± 401 nM. For the molecule `NC(=O)c1cc([C@H](O)CO)nc(-c2ccc(Oc3ccc(Cl)cc3F)cc2)n1` [compound 10], the IC50 at human Nav1.7 worked out at 84 ± 29 nM. `C[C@H](NC(=O)c1cc([C@H](O)CO)nc(-c2ccc(Oc3ccc(F)cc3)cc2)n1)C(=O)O` [compound 15]: the IC50 at human Nav1.7 is above 20000 nM. Turning to `N#Cc1ccc(Oc2ccc(-c3nc(C(N)=O)cc([C@H](O)CO)n3)cc2)cc1C(F)(F)F` [compound 13], on hNav1.7, the Ki was found to be 195 ± 30 nM and the Kd was found to be 5150 ± 360 nM. On human Nav1.7, the IC50 was 394 ± 19 nM. On to `NC(=O)c1cc([C@H](O)CO)nc(-c2ccc(Oc3ccc(C(F)(F)F)cc3)cc2)n1` [compound 17], for which the IC50 at human Nav1.7 was 133 ± 26 nM.

In the case of `N#Cc1cc(Oc2ccc(-c3nc(C(N)=O)cc([C@H](O)CO)n3)cc2)ccc1C(F)(F)F` [compound 11], on hNav1.7, the Ki was found to be 147 ± 30 nM and the Kd was determined as 2010 ± 310 nM. Further, the IC50 at human Nav1.7 came out at 279 ± 112 nM.
